Experiment [1] is described as follows: Sensory evaluation of sweetening potency relative to sugar. Format: in vivo. Conditions: for Sweetening potency (relative to sugar): times that of sugar, sensory evaluation; for sweetening potency: Relative to sweetening potency of a 4% sucrose aqueous solution. The source says: For example, the sweetening potency of N-[N-[3(3-methyl-4-hydroxyphenyl)propyl]-L-α-aspartyl]-L-phenylalanine 1-methyl ester was approximately 35,000 times that of sugar; that of N-[N-[3-(2-hydroxy-4-methylphenyl)propyl]-L-α-aspartyl]-L-α-phenylalanine 1-methyl ester was approximately 30,000 times that of sugar; that of N-[N-[3-(3-hydroxy-4-methoxyphenyl)propyl]-L-α-aspartyl]-L-phenylalanine 1-methyl ester was approximately 20,000 times that of sugar; that of N-[N-[3-(2-hydroxy-4-methoxyphenyl)propyl]-L-α-aspartyl]-L-phenylalanine 1-methyl ester was approximately 20,000 times that of sugar; that of N-[N-[3-(3-hydroxy-4-methylphenyl)propyl]-L-α-aspartyl]-L-phenylalanine 1-methyl ester was approximately 15,000 times that of sugar; that of N-(N-(3-(3-hydroxyphenyl)propyl]-L-α-aspartyl]-L-phenylalanine 1-methyl ester was approximately 8,000 times that of sugar; that of N-[N-(3-(4-methoxyphenyl)propyl]-L-α-aspartyl]-L-phenylalanine 1-methyl ester was approximately 6,500 times that of sugar; and that of N-(N-[3-(3-hydroxy-4-methoxyphenyl)propyl]-L-α-aspartyl]-L-tyrosine 1-methyl ester was approximately 16,000 times that of sugar.
The structures and the results of the sensory evaluation of aspartyl dipeptide derivatives represented by formula (2) are shown in Table 1. [drawing 3]

The conditions of experiment [2]: as reported in WO 94/11391 (U.S. Pat. No. 5,480,668); cited from earlier work.

The source of these data is patent publication US6548096B1, “Aspartyl dipeptide ester derivatives and sweeteners” (Ajinomoto Co., Inc., priority 1998, dated 2003).

Read-outs that look alike come from different tables or passages of the source.

Consider `COC(=O)[C@H](Cc1ccccc1)NC(=O)[C@H](CC(=O)O)NCCCc1ccc(OC)cc1O`, for which the “Sweetening potency (relative to sugar)” value in experiment [1] was “approximately 20,000 times”.
For `COC(=O)[C@H](Cc1ccccc1)NC(=O)[C@H](CC(=O)O)NCCCc1ccc(OC)c(O)c1`, the “Sweetening potency (relative to sugar)” value in experiment [1] was “approximately 20,000 times”.
Take `COC(=O)[C@H](Cc1ccccc1)NC(=O)[C@H](CC(=O)O)NCCCc1ccc(C)c(O)c1`: the “Sweetening potency (relative to sugar)” value in experiment [1] is “approximately 15,000 times”.
In turn, `COC(=O)[C@H](Cc1ccccc1)NC(=O)[C@H](CC(=O)O)NCCCc1ccc(OC)c(O)c1` [Compound 1, N-[N-[3-(3-hydroxy-4-methoxyphenyl)propyl]-L-α-aspartyl]-L-phenylalanine 1-methyl ester] displayed a sweetening potency in experiment [1] of 20000. Further, the “Sweetening potency (relative to sugar)” value in experiment [1] (listed as Example 1) is given as 20,000 times.
In the case of `COC(=O)[C@H](Cc1ccccc1)NC(=O)[C@H](CC(=O)O)NCCCc1ccc(OC)c(OC)c1` [Compound 2, N-[N-[3-(3,4-dimethoxyphenyl)propyl]-L-α-aspartyl]-L-phenylalanine 1-methyl ester], in experiment [1], the sweetening potency worked out at 2500 and the “Sweetening potency (relative to sugar)” value is recorded as 2,500 times.
For the compound `COC(=O)[C@H](Cc1ccccc1)NC(=O)[C@H](CC(=O)O)NCCCc1ccc2c(c1)OCO2` [Compound 3, N-[N-[3-(3,4-methylenedioxyphenyl)propyl]-L-α-aspartyl]-L-phenylalanine 1-methyl ester], in experiment [1], the sweetening potency is listed as 5000 and the “Sweetening potency (relative to sugar)” value is recorded as 5,000 times.
For the compound `COC(=O)[C@H](Cc1ccccc1)NC(=O)[C@H](CC(=O)O)NCCCc1ccc(O)cc1` [Compound 4, N-[N-[3-(4-hydroxyphenyl)propyl]-L-α-aspartyl]-L-phenylalanine 1-methyl ester], in experiment [1], the sweetening potency is reported as 5000 and the “Sweetening potency (relative to sugar)” value is listed as 5,000 times.
Take `COC(=O)[C@H](Cc1ccccc1)NC(=O)[C@H](CC(=O)O)NCCCc1ccc(OC)cc1` [Compound 5, N-[N-[3-(4-methoxyphenyl)propyl]-L-α-aspartyl]-L-phenylalanine 1-methyl ester]: the sweetening potency in experiment [1] is given as 6500. Further, the “Sweetening potency (relative to sugar)” value in experiment [1] (listed as Example 5) is reported as 6,500 times; in experiment [1] (listed as N-[N-(3-(4-methoxyphenyl)propyl]-L-α-aspartyl]-L-phenylalanine 1-methyl ester)), “approximately 6,500 times”.
In the case of `CCOc1ccc(CCCN[C@@H](CC(=O)O)C(=O)N[C@@H](Cc2ccccc2)C(=O)OC)cc1` [Compound 6, N-[N-[3-(4-Ethoxyphenyl)propyl]-L-α-aspartyl]-L-phenylalanine 1-Methyl Ester], in experiment [1], the sweetening potency came out at 1500 and the “Sweetening potency (relative to sugar)” value is listed as 1,500 times.
As for `COC(=O)[C@H](Cc1ccccc1)NC(=O)[C@H](CC(=O)O)NCCCc1cccc(O)c1` [Compound 7, N-[N-[3-(3-hydroxyphenyl)propyl]-L-α-aspartyl]-L-phenylalanine 1-methyl ester], in experiment [1], the sweetening potency is 8000. Moreover, the “Sweetening potency (relative to sugar)” value in experiment [1] was “approximately 8,000 times”; in experiment [1] (listed as Example 8), 8,000 times.
Take `COC(=O)[C@H](Cc1ccccc1)NC(=O)[C@H](CC(=O)O)NCCCc1cccc(OC)c1` [Compound 8, N-[N-[3-(3-Methoxyphenyl)propyl]-L-α-aspartyl]-L-phenylalanine 1-Methyl Ester]: in experiment [1], the sweetening potency was 3500 and the “Sweetening potency (relative to sugar)” value is recorded as 3,500 times.
On to `COC(=O)[C@H](Cc1ccc(O)cc1)NC(=O)[C@H](CC(=O)O)NCCCc1ccc(OC)c(O)c1` [Compound 9, N-[N-[3-(3-hydroxy-4-methoxyphenyl)propyl]-L-α-aspartyl]-L-tyrosine 1-methyl ester], for which, in experiment [1], the sweetening potency was 16000 and the “Sweetening potency (relative to sugar)” value was “approximately 16,000 times”. For the same compound, the “Sweetening potency (relative to sugar)” value in experiment [1] (listed as Example 10) is given as 16,000 times.
In experiment [1], `COC(=O)[C@H](Cc1ccccc1)NC(=O)[C@H](CC(=O)O)NCCCc1ccc(OC)cc1O` [Compound 10, N-[N-[3-(2-hydroxy-4-methoxyphenyl)propyl]-L-α-aspartyl]-L-phenylalanine 1-methyl ester] had a sweetening potency of 20000. Moreover, in experiment [1] (listed as Example 11), the “Sweetening potency (relative to sugar)” value was 20,000 times.
Regarding `COC(=O)[C@H](Cc1ccccc1)NC(=O)[C@H](CC(=O)O)NCCCc1cccc(OC)c1O` [Compound 11, N-[N-[3-(2-hydroxy-3-methoxyphenyl)propyl]-L-α-aspartyl]-L-phenylalanine 1-methyl ester], in experiment [1], the sweetening potency was 10000 and the “Sweetening potency (relative to sugar)” value is listed as 10,000 times.
Regarding `COC(=O)[C@H](Cc1ccccc1)NC(=O)[C@H](CC(=O)O)NCCCc1cc(OC)ccc1O` [Compound 12, N-[N-[3-(2-hydroxy-5-methoxyphenyl)propyl]-L-α-aspartyl]-L-phenylalanine 1-methyl ester], in experiment [1], the sweetening potency was 1500 and the “Sweetening potency (relative to sugar)” value is on record as 1,500 times.
Compound `COC(=O)[C@H](Cc1ccccc1)NC(=O)[C@H](CC(=O)O)NCCCc1ccc(C)cc1O` [Compound 13, N-[N-[3-(2-hydroxy-4-methylphenyl)propyl]-L-α-aspartyl]-L-phenylalanine 1-methyl ester] gave a sweetening potency in experiment [1] of 30000. Moreover, the “Sweetening potency (relative to sugar)” value in experiment [1] (listed as Example 14) was 30,000 times; in experiment [1] (listed as N-[N-[3-(2-hydroxy-4-methylphenyl)propyl]-L-α-aspartyl]-L-α-phenylalanine 1-meth) it was “approximately 30,000 times”.
On to `COC(=O)[C@H](Cc1ccccc1)NC(=O)[C@H](CC(=O)O)NCCCc1ccc(OC)cc1OC` [Compound 14, N-[N-[3-(2,4-dimethoxyphenyl)propyl]-L-α-aspartyl]-L-phenylalanine 1-methyl ester], for which, in experiment [1], the sweetening potency was 4000 and the “Sweetening potency (relative to sugar)” value was 4,000 times.
On to `CCOc1cc(OC)ccc1CCCN[C@@H](CC(=O)O)C(=O)N[C@@H](Cc1ccccc1)C(=O)OC` [Compound 15, N-[N-[3-(2-Ethoxy-4-methoxyphenyl)propyl]-L-α-aspartyl]-L-phenylalanine 1-Methyl Ester], for which, in experiment [1], the sweetening potency came out at 2500 and the “Sweetening potency (relative to sugar)” value is listed as 2,500 times.
With `COC(=O)[C@H](Cc1ccccc1)NC(=O)[C@H](CC(=O)O)NCCCc1ccc(O)c(C)c1` [Compound 16, N-[N-[3-(3-methyl-4-hydroxyphenyl)propyl]-L-α-aspartyl]-L-phenylalanine 1-methyl ester], in experiment [1], the sweetening potency worked out at 35000 and the “Sweetening potency (relative to sugar)” value is “approximately 35,000 times”. Further, in experiment [1] (listed as Example 17), the “Sweetening potency (relative to sugar)” value is given as 35,000 times.
`COC(=O)[C@H](Cc1ccccc1)NC(=O)[C@H](CC(=O)O)NCCCc1ccc(C)c(O)c1` [Compound 17, N-[N-[3-(3-hydroxy-4-methylphenyl)propyl]-L-α-aspartyl]-L-phenylalanine 1-methyl ester]: in experiment [1], the sweetening potency came out at 15000. For the same compound, the “Sweetening potency (relative to sugar)” value in experiment [1] (listed as Example 18) is given as 15,000 times.
Turning to `COC(=O)[C@H](Cc1ccccc1)NC(=O)[C@H](CC(=O)O)NCCCc1ccc(OC)c(C)c1` [Compound 18, N-[N-[3-(3-methyl-4-methoxyphenyl)propyl]-L-α-aspartyl]-L-phenylalanine 1-methyl ester], in experiment [1], the sweetening potency stood at 8000 and the “Sweetening potency (relative to sugar)” value was 8,000 times.
As to `COC(=O)[C@H](Cc1ccccc1)NC(=O)[C@H](CC(=O)O)NCCCc1cc(OC)cc(OC)c1` [Compound 19, N-[N-[3-(3,5-dimethoxyphenyl)propyl]-L-α-aspartyl]-L-phenylalanine 1-methyl ester], in experiment [1], the sweetening potency was found to be 800 and the “Sweetening potency (relative to sugar)” value was 800 times.
Take `COC(=O)[C@H](Cc1ccccc1)NC(=O)[C@H](CC(=O)O)NCCCc1ccc(OCCO)cc1` [Compound 20, N-[N-[3-(4-(2-Hydroxyethoxy)phenyl)propyl]-L-α-aspartyl]-L-phenylalanine 1-Methyl Ester]: in experiment [1], the sweetening potency is reported as 1000 and the “Sweetening potency (relative to sugar)” value is 1,000 times.
For the compound `COC(=O)[C@H](Cc1ccccc1)NC(=O)[C@H](CC(=O)O)NCCCc1ccc(C)cc1` [Compound 21, N-[N-[3-(4-Methylphenyl)propyl]-L-α-aspartyl]-L-phenylalanine 1-Methyl Ester], in experiment [1], the sweetening potency came to 4000 and the “Sweetening potency (relative to sugar)” value was 4,000 times.
Consider `COC(=O)[C@H](Cc1ccccc1)NC(=O)[C@H](CC(=O)O)NCCC(C)(C)C` [N-[N-(3,3-dimethylbutyl)-L-α-aspartyl]-L-phenylalanine 1-methyl ester], for which, in experiment [2], the sweetening potency was 10,000 times that of sugar.
For `COC(=O)[C@H](Cc1ccccc1)NC(=O)[C@H](CC(=O)O)NCCCc1ccccc1` [N-[N-(3-phenylpropyl)-L-α-aspartyl]-L-phenylalanine-1-methyl ester], the sweetening potency in experiment [2] is on record as 1,500 times that of sugar.
